CC(=O)[O-].C[N+](C)(C)CCO
Details | solubility (mole fraction)
in ethanol, 259.8 K | 0.049
in ethanol, 261.8 K | 0.067
in ethanol, 263.9 K | 0.09
in ethanol, 265.7 K | 0.112
in ethanol, 267.1 K | 0.13
in ethanol, 267.8 K | 0.143
in ethanol, 271.7 K | 0.174
in ethanol, 272.1 K | 0.184
in ethanol, 276.6 K | 0.228
in ethanol, 278.5 K | 0.252
in ethanol, 282.8 K | 0.29
in ethanol, 286.1 K | 0.319
in n-butanol, 268.2 K | 0.023
in n-butanol, 273 K | 0.048
in n-butanol, 276.9 K | 0.074
in n-butanol, 279.9 K | 0.102
in n-butanol, 281.8 K | 0.136
in n-butanol, 284.2 K | 0.172
in n-butanol, 287.7 K | 0.209
in n-butanol, 290.4 K | 0.233
in n-butanol, 295.4 K | 0.293
in n-butanol, 297.7 K | 0.317
in n-propanol, 263.8 K | 0.0191
in n-propanol, 266.9 K | 0.0394
in n-propanol, 270.3 K | 0.062
in n-propanol, 273.1 K | 0.0844
in n-propanol, 274.1 K | 0.11
in n-propanol, 276 K | 0.144
in n-propanol, 277.7 K | 0.174
in n-propanol, 279.9 K | 0.211
in n-propanol, 280.9 K | 0.234
in n-propanol, 282.7 K | 0.269
in n-propanol, 285.2 K | 0.316

C[N+](C)(C)CCO.[Cl-]
Details | solubility (mole fraction)
in ethanol, 269.8 K | 0.017
in ethanol, 276.4 K | 0.027
in ethanol, 281.8 K | 0.038
in ethanol, 287.2 K | 0.054
in ethanol, 290.5 K | 0.066
in ethanol, 292.4 K | 0.072
in ethanol, 296.7 K | 0.082
in ethanol, 300.5 K | 0.089
in ethanol, 305.7 K | 0.098
in ethanol, 308.4 K | 0.109
in ethanol, 315.3 K | 0.125
in ethanol, 321.6 K | 0.138
in n-butanol, 314.6 K | 0.031
in n-butanol, 321.2 K | 0.049
in n-butanol, 328.6 K | 0.068
in n-butanol, 340.8 K | 0.086
in n-butanol, 346.4 K | 0.109
in n-butanol, 349.4 K | 0.131
in n-butanol, 352.9 K | 0.147
in n-propanol, 288.9 K | 0.015
in n-propanol, 295.7 K | 0.023
in n-propanol, 302.3 K | 0.039
in n-propanol, 308.7 K | 0.05
in n-propanol, 309.6 K | 0.059
in n-propanol, 316.5 K | 0.073
in n-propanol, 323.2 K | 0.086
in n-propanol, 330.7 K | 0.108
in n-propanol, 335.3 K | 0.129
in n-propanol, 338 K | 0.153

C[N+](C)(C)CCOC(=O)CCCC(=O)O.[Cl-]
Details | solubility (mole fraction)
in ethanol, 300.2 K | 0.006
in ethanol, 310.6 K | 0.008
in ethanol, 316.8 K | 0.01
in ethanol, 318.5 K | 0.012
in ethanol, 322.1 K | 0.017
in ethanol, 325.4 K | 0.023
in ethanol, 333.2 K | 0.033
in ethanol, 335.8 K | 0.039
in ethanol, 338.1 K | 0.043
in ethanol, 339.4 K | 0.055
in n-butanol, 304.8 K | 0.001
in n-butanol, 318.7 K | 0.0019
in n-butanol, 323.8 K | 0.0022
in n-butanol, 327.5 K | 0.0025
in n-butanol, 330.4 K | 0.0029
in n-butanol, 335.1 K | 0.0035
in n-butanol, 341 K | 0.004
in n-propanol, 305.4 K | 0.002
in n-propanol, 306.6 K | 0.003
in n-propanol, 309.4 K | 0.003
in n-propanol, 315.5 K | 0.004
in n-propanol, 319.9 K | 0.005
in n-propanol, 324.6 K | 0.008
in n-propanol, 331.2 K | 0.011
in n-propanol, 335.1 K | 0.013
in n-propanol, 338.5 K | 0.017

C[N+](C)(C)CCOC(=O)CCC(=O)O.[Cl-]
Details | solubility (mole fraction)
in ethanol, 299 K | 0.008
in ethanol, 300.8 K | 0.01
in ethanol, 305.5 K | 0.015
in ethanol, 310.9 K | 0.02
in ethanol, 313.1 K | 0.026
in ethanol, 315.6 K | 0.028
in ethanol, 320.5 K | 0.038
in ethanol, 322 K | 0.044
in n-butanol, 300.4 K | 0.003
in n-butanol, 308.8 K | 0.004
in n-butanol, 312.7 K | 0.006
in n-butanol, 318.8 K | 0.008
in n-butanol, 322.4 K | 0.009
in n-butanol, 326.4 K | 0.012
in n-butanol, 329.8 K | 0.014
in n-butanol, 338.8 K | 0.016
in n-propanol, 299.2 K | 0.006
in n-propanol, 305.5 K | 0.008
in n-propanol, 310.9 K | 0.01
in n-propanol, 318.7 K | 0.013
in n-propanol, 325.2 K | 0.02
in n-propanol, 328.9 K | 0.025
in n-propanol, 333.2 K | 0.031
in n-propanol, 336.1 K | 0.039
